{"source": "patent US12661329B2", "about": "“Methods of generating oligodendrocytes” (Hadasit Medical Research Services and Development Ltd., priority 2019, dated 2026)", "key": {"[1]": {"system": "oligodendrocyte progenitors (OLPs) isolated from mouse cerebral cortex", "settings": "cited from earlier work"}, "hESC-derived pre-OL": {"system": "hESC-derived pre-OL", "test": "Terminal maturation of hESC-derived pre-oligodendrocytes into MBP+ oligodendrocytes (MBP immunostaining)", "assay_type": "cell-based, human", "settings": "pre-OL on laminin", "description": "Human ESCs (HES1 passages 21 to 42 with a normal karyotype) were cultured as described. hESC colonies were picked up by means of collagenase IV (1 mg/ml; GIBCO-BRL, Gaithersburg, MD) and placed into ultralow adherent culture dishes (Thermo Scientific Nunc HydroCell) to favor sphere aggregation. Spheres were cultured in NDM media consisting of Neural Differentiation Medium (Gibco) and N2B27 supplements with 20 ng/ml FGF-2. Spheres were first patterned with the dual-SMAD inhibitors LDN193189 (1 μM, Cayman Chemical, Ann Arbor, MI) and SB431542 (5 μM, SB; PeproTech Inc, Rocky Hill, NJ) until day 4 when SB431542 was withdrawn and the spheres were further cultured for additional 10 days in the presence LDN193189 and FGF-2. At day 14, the spheres were caudalized and ventralized using 0.1 μM all-trans retinoic acid and 0.5 μM purmorphamine, respectively (PeproTech Inc, Rocky Hill, NJ). At day 35, spheres were switched to modified SATO media, consisting of DMEM/F12, 10 ng/ml biotin, 60 ng/ml progesterone, 16 μg/ml putrescine, 20 μg/ml human insulin, 100 μg/ml apotransferrin, 5 ng/ml sodium selenite, 100 μg/ml bovine serum albumin (BSA), 60 μg/ml N-acetyl cysteine and 2 μg/ml forskolin. The medium was further supplemented with 20 ng/ml FGF-2, 0.5 μM Purmorphamine, 5 ng/ml NT3 and 200 nM ascorbic acid. Media was changed every 3 days for 6-7 weeks. For differentiation, spheres were dissected into small clusters mechanically and plated onto poly-D-lysine/laminin-coated plates and cultured in modified SATO media supplemented with 5 ng/ml NT3, 10 ng/ml IGF-1, 60 ng/ml T3, 100 ng/ml noggin and 200 nM ascorbic acid for 2-4 weeks. […] To block MEK/ERK signaling, PD0325901 (PeproTech Inc, Rocky Hill, NJ) was added freshly every other day to the cells to a concentration of 0.25-0.5 μM. […]"}, "[2]": {"system": "hESC-derived pre-OLs (MBP reporter cells)", "test": "Maturation of MBP-Tomato reporter pre-OLs under normoxia or after 48 h hypoxia (in vitro white matter injury model)", "assay_type": "cell-based, human", "settings": "for proportion of MBP Tomato co-expressing oligodendrocytes: PD0325901 0.25 μM alone or combined, vs vehicle (FIG. 13); for proportion of MBP+ Tomato+ mature oligodendrocytes: noggin 100 ng/ml, DAPT 1 μM", "description": "Human ESCs (HES1 passages 21 to 42 with a normal karyotype) were cultured as described. hESC colonies were picked up by means of collagenase IV (1 mg/ml; GIBCO-BRL, Gaithersburg, MD) and placed into ultralow adherent culture dishes (Thermo Scientific Nunc HydroCell) to favor sphere aggregation. Spheres were cultured in NDM media consisting of Neural Differentiation Medium (Gibco) and N2B27 supplements with 20 ng/ml FGF-2. Spheres were first patterned with the dual-SMAD inhibitors LDN193189 (1 μM, Cayman Chemical, Ann Arbor, MI) and SB431542 (5 μM, SB; PeproTech Inc, Rocky Hill, NJ) until day 4 when SB431542 was withdrawn and the spheres were further cultured for additional 10 days in the presence LDN193189 and FGF-2. At day 14, the spheres were caudalized and ventralized using 0.1 μM all-trans retinoic acid and 0.5 μM purmorphamine, respectively (PeproTech Inc, Rocky Hill, NJ). At day 35, spheres were switched to modified SATO media, consisting of DMEM/F12, 10 ng/ml biotin, 60 ng/ml progesterone, 16 μg/ml putrescine, 20 μg/ml human insulin, 100 μg/ml apotransferrin, 5 ng/ml sodium selenite, 100 μg/ml bovine serum albumin (BSA), 60 μg/ml N-acetyl cysteine and 2 μg/ml forskolin. The medium was further supplemented with 20 ng/ml FGF-2, 0.5 μM Purmorphamine, 5 ng/ml NT3 and 200 nM ascorbic acid. Media was changed every 3 days for 6-7 weeks. For differentiation, spheres were dissected into small clusters mechanically and plated onto poly-D-lysine/laminin-coated plates and cultured in modified SATO media supplemented with 5 ng/ml NT3, 10 ng/ml IGF-1, 60 ng/ml T3, 100 ng/ml noggin and 200 nM ascorbic acid for 2-4 weeks.\nTo block Notch signaling, the γ-secretase inhibitor, DAPT (N—[N-(3,5-difluorphenacetyl)-L-alanyl]-S-phenylglycine t-butyl ester), PeproTech Inc, Rocky Hill, NJ) was added freshly every other day to the cells to a concentration of 1 μM. To block MEK/ERK signaling, PD0325901 (PeproTech Inc, Rocky Hill, NJ) was added freshly every other day to the cells to a concentration of 0.25-0.5 μM.\nImmunocytochemistry: Cells were fixed in 4% paraformaldehyde for 20 min, washed with PBS, blocked in blocking solution (5% donkey serum, 0.2% Triton X-100 in PBS) for 1 hour, and incubated for 2 hours with primary antibodies mouse anti-Olig2 (Millipore Corporation diluted 1:150) and mouse anti-Nkx-2.2 (Developmental Studies Hybridoma Bank, diluted 1:100). After washing, cells were incubated with secondary antibody, donkey anti-mouse Alexa-488 (Life Technologies, Inc.), for 1 hour before being mounted in VECTASHIELD™ mounting medium. For O4 staining, cells were blocked in blocking solution (5% donkey serum in DMEM/F12) for 1 hour, and incubated with mouse-anti O4 antibody (R&D System, diluted 1:100) for 2 hours. After washing, cells were fixed in 4% paraformaldehyde for 20 min, and incubated with secondary antibody, donkey anti-mouse Alexa-488 or Alexa-555 (Life Technologies, Inc.), for 1 hour before being mounted in VECTASHIELD™ mounting medium. For MBP staining, after fixation cells were washed with PBS+0.01% saponin, blocked in blocking solution (5% goat serum, 0.01% saponin in DMEM/F12) for 1 hour, and incubated with rat anti-MBP antibody (R&D System 1:100) for 2 hours. After washing, cells were incubated with secondary antibody, goat anti-rat antibody (Jackson laboratories, 1:100) for 1 hour before being mounted in VECTASHIELD™ mounting medium.\nPlasmid construction and gene targeting: Oligonucleotide encoding the MBP-targeting sgRNA was custom ordered (hy.labs), hybridized and ligated into the BbsI restriction site of pX330-U6-Chimeric-BB-CBh-hSpCas9 vector (Addgene #42230). Homology arms from the human mbp locus were amplified from genomic DNA isolated from HES1 cells by nested PCR (5′ arm: Chr18:74692386-74693344, 3′ arm: Chr18:74691209-74692367). The PCR products was digested and ligated into PNTKV-2A-Tomato donor plasmid. Correct construction of each expression cassette was verified by sequence analysis. […]"}, "EAE mice": {"system": "EAE mice", "test": "ICV delivery in chronic EAE, Biozzi mouse model of Multiple Sclerosis", "assay_type": "in vivo, Biozzi ABH mice", "settings": "ICV mini-osmotic pump, 5 μg per day, vs vehicle-treated EAE mice", "source_text": "The Biozzi mouse model of Multiple Sclerosis: Biozzi ABH mice have genetic tendency to develop autoimmune diseases, and are used for many autoimmune models. The experimental autoimmune model in Biozzi mice is induced by immunization with spinal cord homogenate. Typically, mice develop an acute relapse, followed by remission, and after that a relapsing and progressive course of disease, resembling human multiple sclerosis (MS). […] In the chronic phase of EAE there are typical immunopathological features resembling progressive MS, such as meningeal infiltrates and development of tertiary lymphoid-like tissue, partial closing of the blood-brain-barrier, and reduction in lesion activity with increase in astrogliosis. Therefore, this model is considered one of the most clinical-relevant experimental models of MS. EAE was induced in Biozzi mice. Briefly, mice were inoculated subcutaneously at day 0 and day 7 in both hind flanks with 1 mg spinal cord homogenate emulsified in complete Freund's adjuvant supplemented with 3 μg M. Butyricum. Mice were monitored and scored daily in a blinded manner as follows: 0=normal, 1=limp tail, 2=impaired righting reflex, 3=hind-limb paresis; 4=complete hind-limb paralysis and 5=moribund/death. 10-14 days after the second relapse the mice were divided into two prospective experimental groups. […]"}, "MEK-ERK signalling": {"system": "MEK-ERK signalling", "settings": "mouse; earlier stage of differentiation of the oligodendroglial lineage; cited from earlier work"}, "[3]": {"system": "oligodendroglial differentiation", "settings": "cited from earlier work"}, "[4]": {"settings": "hypoxia 48 hours, then 3 weeks normoxia, vs vehicle"}}, "data": [{"molecule": "Oc1nc(-c2ccc(C(F)(F)F)cc2)nc2c1CSCC2", "note": "[XAV939]", "values": [{"measurement": "differentiation of oligodendrocyte progenitors (OLPs)", "setting": "[1]", "value": "promote differentiation"}]}, {"molecule": "O=C(NOC[C@H](O)CO)c1ccc(F)c(F)c1Nc1ccc(I)cc1F", "note": "[PD0325901]", "values": [{"measurement": "culture period after which maturation was obtained", "setting": "hESC-derived pre-OL", "value": 1, "unit": "week"}, {"measurement": "branching of processes of MBP+ cells", "setting": "hESC-derived pre-OL; 1 week", "value": "enhanced branching"}, {"measurement": "proportion of MBP mature oligodendrocytes / maturation into MBP+ cells", "setting": "hESC-derived pre-OL; DAPT+noggin 2 weeks, PD0325901 1 week, vs vehicle", "value": "highly significant augmentation"}, {"measurement": "proportion of MBP Tomato co-expressing oligodendrocytes", "setting": "[2]; hypoxia exposed, one week following hypoxia", "value": "increased proportion"}, {"measurement": "MBP+ Tomato+-expressing oligodendrocytes", "setting": "[2]; hypoxia-exposed cultures, 0.25 μM or 0.5 μM for one week", "value": "marked increase"}, {"measurement": "branching of processes of MBP+ Tomato+ oligodendrocytes", "setting": "[2]; hypoxia-exposed cultures, one week", "value": "marked increase"}, {"measurement": "number of MBP Tomato co-expressing oligodendrocytes", "setting": "[2]; hypoxia-exposed, 0.25 μM, one week following hypoxia, vs vehicle (FIG. 11)", "value": "increased number"}, {"measurement": "number of MBP Tomato co-expressing oligodendrocytes", "setting": "[2]; hypoxia-exposed, 0.5 μM, one week following hypoxia, vs vehicle (FIG. 12)", "value": "increased number"}, {"measurement": "proportion of MBP+ Tomato+ oligodendrocytes", "setting": "[2]; normoxia, 0.25 μM or 0.5 μM for one week, vs vehicle", "value": "significant increase"}, {"measurement": "number of MBP Tomato co-expressing oligodendrocytes", "setting": "[2]; normoxia, 0.25 μM, one week, vs vehicle (FIG. 11)", "value": "increased number"}, {"measurement": "number of MBP Tomato co-expressing oligodendrocytes", "setting": "[2]; normoxia, 0.5 μM, one week, vs vehicle (FIG. 12)", "value": "increased number"}, {"measurement": "proportion of MBP Tomato co-expressing oligodendrocytes", "setting": "[2]; normoxia, one week", "value": "increased proportion"}, {"measurement": "branching of the processes of MBP+ oligodendrocytes", "setting": "[2]; normoxia, one week", "value": "significantly enhanced"}, {"measurement": "effect on pre-OLs maturation compared with noggin or DAPT", "setting": "[2]; one week of treatment vs two-three weeks with noggin and/or DAPT", "value": "more prominent"}, {"measurement": "disease course: mean cumulative score of disease", "setting": "EAE mice; 28 days from implantation", "value": "significantly milder"}, {"measurement": "disease course: final clinical score at day of termination", "setting": "EAE mice; 28 days", "value": "significantly milder"}, {"measurement": "oligodendrocyte differentiation", "setting": "MEK-ERK signalling", "value": "augment oligodendrocyte differentiation"}]}, {"molecule": "C[C@H](NC(=O)Cc1cc(F)cc(F)c1)C(=O)N[C@H](C(=O)OC(C)(C)C)c1ccccc1", "note": "[DAPT, N—[N-(3,5-difluorphenacetyl)-L-alanyl]-S-phenylglycine t-butyl ester]", "values": [{"measurement": "proportion of MBP+ Tomato+ mature oligodendrocytes", "setting": "[2]; [4]", "value": "increased differentiation"}, {"measurement": "proportion of MBP+ Tomato+ mature oligodendrocytes", "setting": "[2]; normoxia, 3 weeks, vs vehicle", "value": "did not increase"}]}, {"molecule": "noggin: BMP antagonist (protein, UniProt Q13253 28-232, looked up) Noggin: QHYLHIRPAPSDNLPLVDLIEHPDPIFDPKEKDLNETLLRSLLGGHYDPGFMATSPPEDRPGGGGGAAGGAEDLAELDQLLRQRPSGAMPSEIKGLEFSEGLAQGKKQRLSKKLRRKLQMWLWSQTFCPVLYAWNDLGSRFWPRYVKVGSCFSKRSCSVPEGMVCKPSKSVHLTVLRWRCQRRGGQRCGWIPIQYPIISECKCSC", "values": [{"measurement": "proportion of MBP+ Tomato+ mature oligodendrocytes", "setting": "[2]; [4]", "value": "substantial increase"}, {"measurement": "proportion of MBP+ Tomato+ mature oligodendrocytes", "setting": "[2]; normoxia, 3 weeks, vs vehicle", "value": "substantial increase"}, {"measurement": "oligodendroglial differentiation and maturation", "setting": "[3]", "value": "enhance oligodendroglial differentiation and maturation"}]}]}
